Test results from US10870638B2, “Pyridazinone compound or its salt, and herbicide containing it” (ISHIHARA SANGYO KAISHA, LTD., priority 2016, dated 2020).

Experiments:
Assay type in all cases: in vivo
Details in all cases: active ingredient amount 31 g/ha, 14th day after application
[1] = system: barnyardgrass (Echinochloa crus-qalli L.); experiment: Test Example 1: foliar treatment, growth inhibition rate on 14th day
Summary of the method: (§1)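 Visual 0–100% inhibition scoring (100 = complete kill) at 14 days after foliar treatment of soil-grown seedlings at species-specific leaf stages, with the compound sprayed as a wettable powder or emulsifiable concentrate dilution.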

corn (Zea mays L.) [2] = experiment: as above
Summary of the method: as §1

[3] = system: crabgrass (Digitaria sanquinalis L.); experiment: as above
Summary of the method: as §1

[4] = system: green foxtail (Setaria viridis L.); experiment: as above
Summary of the method: (§2)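 Using a small sprayer, formulated compound in water (0.1 vol % surfactant, 1,000 L/ha) was applied to seedlings grown from seed in upland soil. Fourteen days on, growth state was observed and expressed as percent inhibition from 0 to 100.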

[5] = system: italian ryegrass (Lolium multiflorum Lam.); experiment: as above
Summary of the method: as §1

[6] = system: redroot pigweed (Amaranthus retroflexus L.); experiment: as above
Summary of the method: as §1

rice (Oryza sativa L.) [7] = experiment: as above
Summary of the method: as §2

[8] = system: soybean (Glycine max Merr.); experiment: as above
Summary of the method: as §2

[9] = system: wheat (Triticum aestivum L.); experiment: as above
Summary of the method: as §1

[10] = system: wild oat (Avena fatua L.); experiment: as above
Summary of the method: as §2

[11] = system: barnyardgrass (Echinochloa crus-qalli L.); experiment: Test Example 2: soil application on the day after sowing, growth inhibition rate on 14th day
Summary of the method: (§3)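 Herbicidal effect is assessed on pot-grown plants after a soil spray applied the day after sowing at prescribed active ingredient rates. Scoring occurs visually at day 14 as growth inhibition (%).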

corn (Zea mays L.) [12] = experiment: as above
Summary of the method: as §3

[13] = system: crabgrass (Digitaris sanquinalis L.); experiment: as above
Summary of the method: as §3

[14] = system: green foxtail (Setaria viridis L.); experiment: as above
Summary of the method: as §3

[15] = system: prickly sida (Sida spinosa L.); experiment: as above
Summary of the method: as §3

[16] = system: redroot pigweed (Amaranthus retroflexus L.); experiment: as above
Summary of the method: as §3

rice (Oryza sativa L.) [17] = experiment: as above
Summary of the method: as §3

[18] = system: soybean (Glycine max Merr.); experiment: as above
Summary of the method: as §3

[19] = system: velvetleaf (Abutilon theophrasti MEDIC.); experiment: as above
Summary of the method: as §3

[20] = system: wheat (Triticum aestivum L.); experiment: as above
Summary of the method: as §3

CC(=O)Oc1cnn(C)c(=O)c1-c1cc(Oc2nc3ccc(Cl)cc3o2)ccc1C [Compound 2-164]
Growth inhibition rate (%) Barnyardgrass [1]: 100% | Growth inhibition rate (%) Corn (corn (Zea mays L.) [2]): 90% | Growth inhibition rate (%) Crabgrass [3]: 100% | Growth inhibition rate (%) Green foxtail [4]: 100% | Growth inhibition rate (%) Italian ryegrass [5]: 95% | Growth inhibition rate (%) Redroot pigweed [6]: 0% | Growth inhibition rate (%) Rice (rice (Oryza sativa L.) [7]): 83% | Growth inhibition rate (%) Soybean [8]: 40% | Growth inhibition rate (%) Wheat [9]: 10% | Growth inhibition rate (%) Wild oat [10]: 90% | Growth inhibition rate (%) Barnyardgrass [11]: 50% | Growth inhibition rate (%) Corn (corn (Zea mays L.) [12]): 0% | Growth inhibition rate (%) Crabgrass [13]: 98% | Growth inhibition rate (%) Green foxtail [14]: 90% | Growth inhibition rate (%) Prickly sida [15]: 0% | Growth inhibition rate (%) Redroot pigweed [16]: 0% | Growth inhibition rate (%) Rice (rice (Oryza sativa L.) [17]): 0% | Growth inhibition rate (%) Soybean [18]: 0% | Growth inhibition rate (%) Velvetleaf [19]: 0% | Growth inhibition rate (%) Wheat [20]: 0%

CCc1ccc(Oc2nc3ccccc3o2)cc1-c1c(O)c(C)nn(C)c1=O [Compound 2-165]
Growth inhibition rate (%) Barnyardgrass [1]: 100% | Growth inhibition rate (%) Corn (corn (Zea mays L.) [2]): 35% | Growth inhibition rate (%) Crabgrass [3]: 70% | Growth inhibition rate (%) Green foxtail [4]: 88% | Growth inhibition rate (%) Italian ryegrass [5]: 0% | Growth inhibition rate (%) Redroot pigweed [6]: 0% | Growth inhibition rate (%) Rice (rice (Oryza sativa L.) [7]): 25% | Growth inhibition rate (%) Soybean [8]: 25% | Growth inhibition rate (%) Wheat [9]: 0% | Growth inhibition rate (%) Wild oat [10]: 0% | Growth inhibition rate (%) Barnyardgrass [11]: 99% | Growth inhibition rate (%) Corn (corn (Zea mays L.) [12]): 0% | Growth inhibition rate (%) Crabgrass [13]: 98% | Growth inhibition rate (%) Green foxtail [14]: 99% | Growth inhibition rate (%) Prickly sida [15]: 0% | Growth inhibition rate (%) Redroot pigweed [16]: 0% | Growth inhibition rate (%) Rice (rice (Oryza sativa L.) [17]): 70% | Growth inhibition rate (%) Soybean [18]: 0% | Growth inhibition rate (%) Velvetleaf [19]: 0% | Growth inhibition rate (%) Wheat [20]: 0%

CCc1ccc(Oc2nc3ccccc3o2)cc1-c1c(O)c(C)nn(C)c1=O [Compound 2-166]
Growth inhibition rate (%) Barnyardgrass [1]: 100% | Growth inhibition rate (%) Corn (corn (Zea mays L.) [2]): 80% | Growth inhibition rate (%) Crabgrass [3]: 88% | Growth inhibition rate (%) Green foxtail [4]: 100% | Growth inhibition rate (%) Italian ryegrass [5]: 99% | Growth inhibition rate (%) Redroot pigweed [6]: 20% | Growth inhibition rate (%) Rice (rice (Oryza sativa L.) [7]): 88% | Growth inhibition rate (%) Soybean [8]: 30% | Growth inhibition rate (%) Wheat [9]: 10% | Growth inhibition rate (%) Wild oat [10]: 40% | Growth inhibition rate (%) Barnyardgrass [11]: 99% | Growth inhibition rate (%) Corn (corn (Zea mays L.) [12]): 0% | Growth inhibition rate (%) Crabgrass [13]: 95% | Growth inhibition rate (%) Green foxtail [14]: 100% | Growth inhibition rate (%) Prickly sida [15]: 0% | Growth inhibition rate (%) Redroot pigweed [16]: 0% | Growth inhibition rate (%) Rice (rice (Oryza sativa L.) [17]): 70% | Growth inhibition rate (%) Soybean [18]: 0% | Growth inhibition rate (%) Velvetleaf [19]: 0% | Growth inhibition rate (%) Wheat [20]: 0%

CCn1ncc(OC(C)=O)c(-c2cc(Oc3nc4ccc(Cl)cc4o3)ccc2C)c1=O [Compound 2-169]
Growth inhibition rate (%) Barnyardgrass [1]: 100% | Growth inhibition rate (%) Corn (corn (Zea mays L.) [2]): 98% | Growth inhibition rate (%) Crabgrass [3]: 100% | Growth inhibition rate (%) Green foxtail [4]: 100% | Growth inhibition rate (%) Italian ryegrass [5]: 85% | Growth inhibition rate (%) Redroot pigweed [6]: 0% | Growth inhibition rate (%) Rice (rice (Oryza sativa L.) [7]): 83% | Growth inhibition rate (%) Soybean [8]: 40% | Growth inhibition rate (%) Wheat [9]: 85% | Growth inhibition rate (%) Wild oat [10]: 88% | Growth inhibition rate (%) Barnyardgrass [11]: 70% | Growth inhibition rate (%) Corn (corn (Zea mays L.) [12]): 0% | Growth inhibition rate (%) Crabgrass [13]: 98% | Growth inhibition rate (%) Green foxtail [14]: 98% | Growth inhibition rate (%) Prickly sida [15]: 0% | Growth inhibition rate (%) Redroot pigweed [16]: 0% | Growth inhibition rate (%) Rice (rice (Oryza sativa L.) [17]): 0% | Growth inhibition rate (%) Soybean [18]: 0% | Growth inhibition rate (%) Velvetleaf [19]: 0% | Growth inhibition rate (%) Wheat [20]: 0%

Cc1ccc(Oc2nc3ccc(Cl)cc3o2)cc1-c1c(O)cnn(C(C)C)c1=O [Compound 2-171]
Growth inhibition rate (%) Barnyardgrass [1]: 99% | Growth inhibition rate (%) Corn (corn (Zea mays L.) [2]): 80% | Growth inhibition rate (%) Crabgrass [3]: 90% | Growth inhibition rate (%) Green foxtail [4]: 93% | Growth inhibition rate (%) Italian ryegrass [5]: 30% | Growth inhibition rate (%) Redroot pigweed [6]: 0% | Growth inhibition rate (%) Rice (rice (Oryza sativa L.) [7]): 25% | Growth inhibition rate (%) Soybean [8]: 30% | Growth inhibition rate (%) Wheat [9]: 0% | Growth inhibition rate (%) Wild oat [10]: 0% | Growth inhibition rate (%) Barnyardgrass [11]: 65% | Growth inhibition rate (%) Corn (corn (Zea mays L.) [12]): 0% | Growth inhibition rate (%) Crabgrass [13]: 30% | Growth inhibition rate (%) Green foxtail [14]: 75% | Growth inhibition rate (%) Prickly sida [15]: 0% | Growth inhibition rate (%) Redroot pigweed [16]: 0% | Growth inhibition rate (%) Rice (rice (Oryza sativa L.) [17]): 0% | Growth inhibition rate (%) Soybean [18]: 0% | Growth inhibition rate (%) Velvetleaf [19]: 0% | Growth inhibition rate (%) Wheat [20]: 0%

CC(=O)Oc1cnn(C(C)C)c(=O)c1-c1cc(Oc2nc3ccc(Cl)cc3o2)ccc1C [Compound 2-172]
Growth inhibition rate (%) Barnyardgrass [1]: 100% | Growth inhibition rate (%) Corn (corn (Zea mays L.) [2]): 98% | Growth inhibition rate (%) Crabgrass [3]: 98% | Growth inhibition rate (%) Green foxtail [4]: 99% | Growth inhibition rate (%) Italian ryegrass [5]: 35% | Growth inhibition rate (%) Redroot pigweed [6]: 0% | Growth inhibition rate (%) Rice (rice (Oryza sativa L.) [7]): 30% | Growth inhibition rate (%) Soybean [8]: 40% | Growth inhibition rate (%) Wheat [9]: 10% | Growth inhibition rate (%) Wild oat [10]: 40% | Growth inhibition rate (%) Barnyardgrass [11]: 60% | Growth inhibition rate (%) Corn (corn (Zea mays L.) [12]): 0% | Growth inhibition rate (%) Crabgrass [13]: 30% | Growth inhibition rate (%) Green foxtail [14]: 20% | Growth inhibition rate (%) Prickly sida [15]: 0% | Growth inhibition rate (%) Redroot pigweed [16]: 0% | Growth inhibition rate (%) Rice (rice (Oryza sativa L.) [17]): 0% | Growth inhibition rate (%) Soybean [18]: 0% | Growth inhibition rate (%) Velvetleaf [19]: 0% | Growth inhibition rate (%) Wheat [20]: 0%

Cc1ccc(Oc2nc3cc(Cl)ccc3o2)cc1-c1c(O)cnn(C)c1=O [Compound 2-173]
Growth inhibition rate (%) Barnyardgrass [1]: 99% | Growth inhibition rate (%) Corn (corn (Zea mays L.) [2]): 65% | Growth inhibition rate (%) Crabgrass [3]: 95% | Growth inhibition rate (%) Green foxtail [4]: 88% | Growth inhibition rate (%) Italian ryegrass [5]: 90% | Growth inhibition rate (%) Redroot pigweed [6]: 0% | Growth inhibition rate (%) Rice (rice (Oryza sativa L.) [7]): 85% | Growth inhibition rate (%) Soybean [8]: 0% | Growth inhibition rate (%) Wheat [9]: 75% | Growth inhibition rate (%) Wild oat [10]: 35% | Growth inhibition rate (%) Barnyardgrass [11]: 65% | Growth inhibition rate (%) Corn (corn (Zea mays L.) [12]): 10% | Growth inhibition rate (%) Crabgrass [13]: 80% | Growth inhibition rate (%) Green foxtail [14]: 10% | Growth inhibition rate (%) Prickly sida [15]: 0% | Growth inhibition rate (%) Redroot pigweed [16]: 0% | Growth inhibition rate (%) Rice (rice (Oryza sativa L.) [17]): 20% | Growth inhibition rate (%) Soybean [18]: 0% | Growth inhibition rate (%) Velvetleaf [19]: 0% | Growth inhibition rate (%) Wheat [20]: 0%
